Reference: patent US9162979B2, “1,5-Diary1-2-alkylpyrrole-3-substituted nitro esters, selective COX-2 inhibitors and nitric oxide donors” (ROTTAPHARM BIOTECH S.R.L., priority 2010, dated 2015)
One block for each molecule: values may come before it.

Legend:
[1] = test system: rat liver homogenate; settings: 1 mM
Text: (§3) By evaluating the time-dependent increase in nitrite concentrations in the liver homogenate, it was possible to extrapolate two descriptive parameters:
(§4) Time (in minutes) required for an amount of nitrite to be released by the test compound equal to half its maximum release.

[2] = test system: rat liver homogenate; assay: Evaluation of release of nitrites in hepatic homogenate; settings: for Maximum release (%): nitrite after 4 hours, 1 mM, 37° C., as percentage of SNP
Text: as §3, §4

[3] = test system: isolated rings of thoracic aorta; assay: Evaluation of release of NO: vasorelaxing activity on endothelium-denuded aortic rings contracted with KCl; set-up: species or system rat; key to NO release properties Emax (maximum vasorelaxing effect) / NO release properties pIC50 (vasorelaxing potency): S.E: Scarcely Effective: it is not possible to detect NO release comparable to the other compounds mentioned here; settings: for IC50 / Emax: Rattus norvegicus; for IC50: concentration reducing contractile tone induced by 20 mM KCl by half, read-out: NO release properties pIC50 (vasorelaxing potency) (converted); for Emax / NO release properties Emax (maximum vasorelaxing effect): relative to contractile tone induced by 20 mM KCl, 1 nM-10 μM; for Emax: read-out: NO release properties Emax (maximum vasorelaxing effect)
Procedure, shortened: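 Endothelium-denuded male Wistar rat thoracic aorta rings (2 g preload, Tyrode, 37 °C, 95% O2/5% CO2) precontracted with 20 mM KCl, then given cumulative test compound (1 nM–10 μM). Relaxation as % of KCl tone; Emax and pIC50 reported as mean±SE of 5–10 experiments. Also repeated with 1 μM ODQ.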

[4] = target: COX-2 (Mus musculus (Mouse), UniProt Q05769); assay: Evaluation of COX-2 activity: PGE2 production in LPS-stimulated J774 cells; assay type: cell-based, murine; settings: J774 cells stimulated 24 hours with LPS 10 μg/mL; PGE2 by radio-immunological assay; read-out: Cyclooxygenase inhibition COX-2 IC50
COX-2, sequence (Q05769 18-604): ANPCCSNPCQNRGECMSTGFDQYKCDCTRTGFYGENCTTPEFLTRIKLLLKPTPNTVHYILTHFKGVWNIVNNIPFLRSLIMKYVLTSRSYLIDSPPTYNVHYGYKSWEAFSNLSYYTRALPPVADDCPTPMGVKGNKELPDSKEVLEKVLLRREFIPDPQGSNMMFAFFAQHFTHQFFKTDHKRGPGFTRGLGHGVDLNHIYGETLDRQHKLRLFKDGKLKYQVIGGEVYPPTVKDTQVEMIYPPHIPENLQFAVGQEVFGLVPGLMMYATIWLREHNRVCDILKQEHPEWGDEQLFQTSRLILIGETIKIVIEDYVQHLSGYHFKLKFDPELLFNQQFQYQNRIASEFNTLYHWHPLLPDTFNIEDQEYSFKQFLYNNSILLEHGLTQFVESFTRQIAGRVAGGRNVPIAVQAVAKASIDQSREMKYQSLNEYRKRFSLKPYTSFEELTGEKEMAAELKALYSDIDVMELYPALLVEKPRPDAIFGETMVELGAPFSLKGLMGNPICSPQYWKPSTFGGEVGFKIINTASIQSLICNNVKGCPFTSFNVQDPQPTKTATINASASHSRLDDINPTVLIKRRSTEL
Procedure, shortened: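 Murine J774 macrophages switched to serum-free medium before stimulation; PGE2 in supernatants measured by radioimmunoassay, triplicate wells per condition. IC50 with 95% intervals from sigmoidal variable-slope dose-response fit.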

[5] = test system: mouse abdominal contraction (writhing) induced by acetic acid; assay: Abdominal constriction test induced by acetic acid; assay type: in vivo
Method: (§1) Male Swiss albino mice (23-25 g) and Wistar rats (150-200 g) were used.
The antinociceptive activity was determined by the mouse abdominal contraction test using acetic acid (0.6%), which induces writhing, according to Koster's method (Fed. Proc., 1959, 18, 412-418). The number of stretching movements was counted for 10 minutes, starting 5 minutes after injection of acetic acid. The results relating to analgesic activity in the abdominal constriction test with representative compounds of the invention are shown in Table 10.
The test was carried out using 10 animals in the treated group and 20 in the control group (CMC); all the compounds were administered per os with the exception of the compound of Example 8, which was administered i.p.

[6] = test system: rat paw oedema induced by carrageenan; assay: Volume of oedema test (carrageenan); assay type: in vivo
Method: The rat paw volumes were measured using a pletismometer. Four hours after injecting carrageenan 1.0% (0.1 ml injection), the volume of the right hind-paw was measured and compared with that of controls treated with a saline/carrageenan solution. The rats were administered the test compounds 3.5 hours after the carrageenan. The results are given as paw volume expressed in ml. The results relating to the analgesic and anti-oedemic activity in the carrageenan test for some representative compounds of the invention are shown in Table 11.
(§2) The test was performed using 6 animals per group, all the compounds were administered per os, 30 min before the test. The carrageenan is administered 2 h before the test.

[7] = test system: carrageenan-induced inflammatory state in the rat; assay: Carrageenan test: nociceptive threshold (weight supported); assay type: in vivo; settings: for Weight supported (g) Before treatment: baseline before treatment
Method: as §1
The nociceptive threshold in the rat was determined with an analgesiometer, as described by Leighton et al. (Br. J. Pharmacol., 1988, 93, 553-560), the pressure was measured before the treatment and after 30 and 60 min. To reproduce the inflammatory state in the rat, carrageenan was administered i.p. (0.1 ml, 1%) 4 h before the test.
as §2

[8] = test system: MIA-induced osteoarthritis; assay: Chronic pain from MIA-induced osteoarthritis; assay type: in vivo, rat; settings: 20 mg/kg per os twice daily for 14 days; for Weight supported (g) Before treatment: baseline before treatment
Method: The compounds are administered per os at a dose of 20 mg/kg twice daily for 14 days. Monosodium iodoacetate (MIA), 2 mg in 25 μL is injected in the left knee of anaesthetized rats, the test is carried out according to the literature. Each experiment represents the mean value for 5 animals.

[9] = test system: carrageenan-induced inflammatory state in the rat; assay: Carrageenan test: nociceptive threshold (weight supported); assay type: in vivo; settings: 20 mg/kg per os

SMILES: Cc1c(CC(=O)OCCO[N+](=O)[O-])cc(-c2ccc(S(C)(=O)=O)cc2)n1-c1ccc(F)cc1 [Example 2, 2-(Nitrooxy)ethyl-2-[(1-(4-fluorophenyl)-2-methyl-5-(4-(methylsulphonyl)phenyl)-1H-pyrrol-3-yl)]acetate]
T ½ [1]: 1.14 ± 0.208 h | Maximum release (%) [2]: 26 ± 7% | IC50 [3]: 3470 nM | Emax [3]: 58 ± 5%

SMILES: Cc1c(CC(=O)OCCO[N+](=O)[O-])cc(-c2ccc(S(C)(=O)=O)cc2)n1-c1cccc(F)c1 [Example 3, 2-(Nitrooxy)ethyl-2-[(1-(3-fluorophenyl)-2-methyl-5-(4-methylsulphonylphenyl)-1H-pyrrol-3-yl)]acetate]
IC50 [4]: 19 nM | IC50 [3]: 331 nM | Emax [3]: 69 ± 4% | N writhes ([5]; 20 mg/kg per os): 17.1 ± 2.3 | N writhes ([5]; 40 mg/kg per os): 9.4 ± 2.5 | Oedema Volume ([6]; 40 mg/kg per os): 2.17 ± 0.08 mL | Weight supported (g) After treatment 30 min ([7]; 40 mg/kg per os): 54.1 ± 3.7 g | Weight supported (g) After treatment 60 min ([7]; 40 mg/kg per os): 38.7 ± 3.1 g | Weight supported (g) Before treatment ([7]; 40 mg/kg per os): 32.6 ± 2.7 g

SMILES: Cc1c(CCOCCO[N+](=O)[O-])cc(-c2ccc(S(C)(=O)=O)cc2)n1-c1ccc(F)cc1 [Example 37, 2-[2-[2-(1-(4-Fluorophenyl)-2-methyl-5-(4-methylsulphonylphenyl)-1H-pyrrol-3-yl]ethoxy]ethyl Nitrate]
IC50 [4]: 14 nM | Weight supported (g) After treatment 30 min [8]: 45.1 ± 3.7 g | Weight supported (g) After treatment 4 h [8]: 39.1 ± 3.5 g | Weight supported (g) After treatment 24 h [8]: 33.8 ± 3.7 g | Weight supported (g) Before treatment [8]: 34.6 ± 3.1 g | T ½ [1]: 0.713 ± 0.115 h | Maximum release (%) [2]: 25 ± 3% | Emax [3]: 49 ± 3% | N writhes ([5]; 10 mg/kg per os): 19.1 ± 2.7 | N writhes ([5]; 20 mg/kg per os): 15.2 ± 3.3 | Oedema Volume ([6]; 10 mg/kg per os): 1.87 ± 0.07 mL | Weight supported (g) After treatment 30 min ([7]; 10 mg/kg per os): 55.1 ± 4.7 g | Weight supported (g) After treatment 60 min ([7]; 10 mg/kg per os): 52.6 ± 4.0 g | Weight supported (g) Before treatment ([7]; 10 mg/kg per os): 34.7 ± 2.7 g

SMILES: Cc1c(CCOCCO)cc(-c2ccc(S(C)(=O)=O)cc2)n1-c1ccc(F)cc1 [Example 37-II]
Weight supported (g) After treatment 30 min [8]: 51.2 ± 3.9 g | Weight supported (g) After treatment 4 h [8]: 50.3 ± 3.8 g | Weight supported (g) After treatment 24 h [8]: 48.1 ± 3.3 g | Weight supported (g) After treatment 36 h [8]: 47.4 ± 3.3 g | Weight supported (g) Before treatment [8]: 33.5 ± 2.6 g | N writhes ([5]; 40 mg/kg per os): 18.2 ± 3.1 | Oedema Volume ([6]; 20 mg/kg per os): 2.08 ± 0.07 mL | Weight supported (g) After treatment 30 min ([7]; 20 mg/kg per os): 46.8 ± 3.7 g | Weight supported (g) After treatment 60 min ([7]; 20 mg/kg per os): 38.7 ± 3.3 g | Weight supported (g) Before treatment ([7]; 20 mg/kg per os): 32.5 ± 3.4 g

SMILES: Cc1c(CCOCCO[N+](=O)[O-])cc(-c2ccc(S(C)(=O)=O)cc2)n1-c1cccc(F)c1 [Example 38, 2-[2-[2-(1-(3-Fluorophenyl)-2-methyl-5-(4-methylsulphonylphenyl)-1H-pyrrol-3-yl]ethoxy]ethyl Nitrate]
IC50 [4]: 28 nM | T ½ [1]: 1.01 ± 0.145 h | Maximum release (%) [2]: 28 ± 3% | IC50 [3]: 4790 nM | Emax [3]: 60 ± 4% | N writhes ([5]; 40 mg/kg per os): 25.3 ± 3.6

SMILES: Cc1c(CCOCCO[N+](=O)[O-])cc(-c2ccc(S(C)(=O)=O)cc2)n1-c1ccc(F)c(F)c1 [Example 39, 2-[2-[2-(1-(3,4-Difluorophenyl)-2-methyl-5-(4-methylsulphonylphenyl)-1H-pyrrol-3-yl]ethoxy]ethyl Nitrate]
IC50 [4]: 920 nM | T ½ [1]: 1.14 ± 0.142 h | Maximum release (%) [2]: 30 ± 1% | Emax [3]: 43 ± 6% | N writhes ([5]; 20 mg/kg per os): 26.3 ± 3.4

SMILES: Cc1c(CCOCCCO[N+](=O)[O-])cc(-c2ccc(S(C)(=O)=O)cc2)n1-c1ccc(F)cc1 [Example 41, 3-[2-[2-(1-(4-Fluorophenyl)-2-methyl-5-(4-methylsulphonylphenyl)-1H-pyrrol-3-yl)]ethoxy]propyl Nitrate]
IC50 [4]: 190 nM | NO release properties Emax (maximum vasorelaxing effect) [3]: S.E. | Oedema Volume ([6]; 20 mg/kg per os): 1.85 ± 0.08 mL | Weight supported (g) After treatment 30 min ([7]; 20 mg/kg per os): 49.2 ± 3.7 g | Weight supported (g) After treatment 60 min ([7]; 20 mg/kg per os): 50.7 ± 3.8 g | Weight supported (g) Before treatment ([7]; 20 mg/kg per os): 30.9 ± 2.8 g | Weight supported after 120 min [9]: 45.2±4.1

SMILES: Cc1c(CCOCCCO[N+](=O)[O-])cc(-c2ccc(S(C)(=O)=O)cc2)n1-c1cccc(F)c1 [Example 42, 3-[2-(1-(3-Fluorophenyl)-2-methyl-5-(4-methylsulphonylphenyl)-1H-pyrrol-3-yl)ethoxy]propyl Nitrate]
IC50 [4]: 430 nM | T ½ [1]: 1.41 ± 0.198 h | Maximum release (%) [2]: 52 ± 8% | NO release properties Emax (maximum vasorelaxing effect) [3]: S.E.

T ½ [1]: 0.143 ± 0.0483 h | IC50 [3]: 5250 nM
SMILES: COc1ccc2cc([C@H](C)C(=O)OCCCCO[N+](=O)[O-])ccc2c1 [Naproxcinod, naproxcinod, reference compound]
course of nitrite release ([2]; incubation in rat liver homogenate): very rapid, slight release of nitrites | Maximum release (%) [2]: 20 ± 1 % | Emax [3]: 62 ± 4% | Oedema Volume ([6]; 10 mg/kg per os): 1.95 ± 0.07 mL | Oedema Volume ([6]; 30 mg/kg per os): 1.88 ± 0.07 mL | Weight supported (g) After treatment 30 min ([7]; 10 mg/kg per os): 47.9 ± 3.5 g | Weight supported (g) After treatment 60 min ([7]; 10 mg/kg per os): 46.2 ± 3.8 g | Weight supported (g) Before treatment ([7]; 10 mg/kg per os): 33.5 ± 3.7 g | Weight supported (g) After treatment 30 min ([7]; 30 mg/kg per os): 48.2 ± 2.8 g | Weight supported (g) After treatment 60 min ([7]; 30 mg/kg per os): 43.9 ± 3.7 g | Weight supported (g) Before treatment ([7]; 30 mg/kg per os): 32.7 ± 3.8 g
